The results in this text go back to patent publication US20260191829A1, “Compositions and Methods of Treating Neurological Conditions” (DRI Biosciences Corporation, priority 2022, published 2026).

Entries after “also recorded” stand apart in the source; their conditions may differ.

The test system of assay [1] is Fmr1 KO mice. The assay can be described thus: Metabolic activities (glucose and lipid) of Fmr1 KO mice. It counts as in vivo, mouse. Conditions: Fmr1 KO mice vs FVB mice; FIG. 4C. The source says:
The altered metabolic activities indicated sympathetic dysregulation (i.e., catecholaminergic disequilibrium). Dopaminergic activity modulates sympathetic activation.
(§1) The study compared learning and memory behaviors of the different drug treated and untreated (vehicle) Fmr1 KO mice with FVB mice (a background strain of the transgenic Fmr1 KO mice; “FVB” refers to the susceptibility of FVB mice to Friend leukemia virus B). Male mice (FVB.129P2-Pde6b<+> Tyr<c-ch>Fmr1<tm1Cgr>/J (Stock No: 004624 |FMR1 KO)) were used as the FXS/autism model and age-matched male mice (FVB.129P2-Pde6b<+> Tyr<c-ch>/AntJ) were used as the controls (Bernardet, M. and W. E. Crusio, Fmr1 KO mice as a possible model of autistic features. Scientific WorldJournal, 2006. 6: p. 1164-76. Hays, S. A., K. M. Huber, and J. R. Gibson, Altered neocortical rhythmic activity states in Fmr1 KO mice are due to enhanced mGluR5 signaling and involve changes in excitatory circuitry. J Neurosci, 2011. 31(40): p. 14223-34. Willemsen, R. and R. F. Kooy, Mouse models of fragile X-related disorders. Dis Model Mech, 2023. 16(2).).
Such alterations indicated an excessive sympathetic activation.

In assay [2] the test system is Fmr1 KO mice. The assay can be described thus: Novel object recognition test (learning and memory) in Fmr1 KO mice. Conditions: Fmr1 KO mice vs vehicle and FVB mice, daily oral treatment from P21, ACT01 25 mg/kg, FIG. 4D. In kind it is in vivo, mouse.
Description: as §1
Unexpected drug-combination effects on rodent learning and memory: Novel object recognition test was used to assess treatment effects of different catecholaminergic mediations (including drug combinations) on cognitive behavior, i.e., learning and memory. […]

Turning to “3-(phenylpropyl)-sydnonimine-N-phenylcarbamoyl [ACT01]”, the “glucose and lipid metabolisms (metabolic activities)” value with Fmr1 KO mice [1] was “normalized the glucose and lipid metabolisms; also recorded: normalized the metabolic activities”. For the same substance, the “learning and memory ability (NOR index = novel object recognition index)” value with Fmr1 KO mice [2] is reported as “significantly (p<0.05) improved; also recorded: positively enhance”.
